These results are taken from US11673910B2, “Macrolides with modified desosamine sugars and uses thereof” (Zikani Therapeutics, Inc., priority 2017, dated 2023).

Converted amounts (≈) assume the structure as drawn.

What all share (type): cell-based
Experiment [1] deals with E. coli strain MP-4. The experiment can be described thus: Broth dilution MIC determination (CLSI) against E. coli strain MP-4. The following applies: Escherichia coli, MP4. The method in brief:
(§1)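 Broth dilution per CLSI guidance gave the MIC for each macrolide. Three activity tiers: MIC not above 4 mg/L (+++); between 8 and below 32 mg/L (++); 32 mg/L or more (+).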
In general terms: Broth dilution looks for growth in wells or tubes with falling amounts of substance.

Experiment [2] relates to K. pneumoniae strain MP-548. Kind of experiment: Broth dilution MIC determination (CLSI) against K. pneumoniae strain MP-548. The following applies: Klebsiella pneumoniae, MP548. The method in brief: as §1
The test system of experiment [3] is P. aeruginosa strain MP-3. The experiment can be described thus: Broth dilution MIC determination (CLSI) against P. aeruginosa strain MP-3. The following applies: Pseudomonas aeruginosa, MP3. The method, boiled down: as §1
For experiment [4], the system named is A. baumannii strain MP-15. Kind of experiment: Broth dilution MIC determination (CLSI) against A. baumannii strain MP-15. The following applies: Acinetobacter baumannii, MP15. The method in brief:
as §1

The subject of experiment [5] is S. aureus strain MP-12. Kind of experiment: Broth dilution MIC determination (CLSI) against S. aureus strain MP-12. The following applies: Staphylococcus aureus, MP12, strain MP-12. The method in brief: as §1

The MIC is the smallest concentration in the dilution series that meets the test's criterion for growth inhibition. A low value points to inhibition by little substance.

Turning to `CCNC[C@@H]1CC(N(C)C)[C@@H](O)[C@H](O[C@@H]2[C@@H](C)C(=O)C(C)C(=O)O[C@H](CC)[C@@]3(C)OC(=O)N[C@@H]3[C@@H](C)N(C)C[C@H](C)C[C@@]2(C)OC)O1` (some centres unmarked) [Compound 165, 3-Descladinosyl-3-oxo-6-O-methyl-11,12-dideoxy-12,11-(oxycarbonylimino)-6′-ethylamino Azithromycin], the minimal inhibitory concentration (MIC) was no more than 4 µg/mL in experiment [1]; 8 to 32 µg/mL (≈ 11.9 to 47.7 µM) in experiment [2]; no less than 32 µg/mL in experiment [3]; no less than 32 µg/mL in experiment [4]; no less than 32 µg/mL in experiment [5].

For the compound `CC[C@H]1OC(=O)C(C)C(=O)[C@H](C)[C@@H](OC2OC(C(=O)NC)CC(N(C)C)C2O)[C@](C)(OC)C[C@@H](C)CN[C@H](C)[C@H]2NC(=O)O[C@@]21C` (some centres unmarked) [Compound 166, 3-Descladinosyl-3-oxo-6-O-methyl-N9a-desmethyl-11,12-dideoxy-12,11-(oxycarbonylimino)-5′-desmethyl-5′-(N-methylcarboxamido) Azithromycin], the minimal inhibitory concentration (MIC) in experiment [1] was 8 to 32 µg/mL (≈ 12.2 to 48.7 µM); in experiment [2], no less than 32 µg/mL; in experiment [3], no less than 32 µg/mL; in experiment [4], no less than 32 µg/mL; in experiment [5] it was no less than 32 µg/mL.

As to `CC[C@H]1OC(=O)C(C)C(=O)[C@H](C)[C@@H](OC2OC(C(=O)N(C)C)CC(N(C)C)C2O)[C@](C)(OC)C[C@@H](C)CN[C@H](C)[C@H]2NC(=O)O[C@@]21C` (some centres unmarked) [Compound 167, 3-Descladinosyl-3-oxo-6-O-methyl-N9a-desmethyl-11,12-dideoxy-12,11-(oxycarbonylimino)-5′-desmethyl-5′-(N,N-dimethylcarboxamido) Azithromycin], the MIC in experiment [1], in experiment [2], in experiment [3], in experiment [4] and in experiment [5] was no less than 32 µg/mL each time.

`CC[C@H]1OC(=O)C(C)C(=O)[C@H](C)[C@@H](OC2OC(C(=O)N(C)C3CC3)CC(N(C)C)C2O)[C@](C)(OC)C[C@@H](C)CN[C@H](C)[C@H]2NC(=O)O[C@@]21C` (some centres unmarked) [Compound 168, 3-Descladinosyl-3-oxo-6-O-methyl-N9a-desmethyl-11,12-dideoxy-12,11-(oxycarbonylimino)-5′-desmethyl-5′-(N,N-cyclopropyl(methyl)carboxamido) Azithromycin]: the MIC in experiment [1], in experiment [2], in experiment [3], in experiment [4] and in experiment [5] was no less than 32 µg/mL each time.

Regarding `CC[C@H]1OC(=O)C(C)C(=O)[C@H](C)[C@@H](OC2OC(CN(C)C(C)=O)CC(N(C)C)C2O)[C@](C)(OC)C[C@@H](C)CN[C@H](C)[C@H]2NC(=O)O[C@@]21C` (some centres unmarked) [Compound 169, 3-Descladinosyl-3-oxo-6-O-methyl-N9a-desmethyl-11,12-dideoxy-12,11-(oxycarbonylimino)-6′-(N-methyl-N-acetylamino) Azithromycin], the minimum inhibitory concentration (MIC) in experiment [1], in experiment [2], in experiment [3], in experiment [4] and in experiment [5] was no less than 32 µg/mL throughout.

Consider `CC[C@H]1OC(=O)C(C)C(=O)[C@H](C)[C@@H](OC2OC(CN(C)C(=O)C(C)(C)C)CC(N(C)C)C2O)[C@](C)(OC)C[C@@H](C)CN[C@H](C)[C@H]2NC(=O)O[C@@]21C` (some centres unmarked) [Compound 170, 3-Descladinosyl-3-oxo-6-O-methyl-N9a-desmethyl-11,12-dideoxy-12,11-(oxycarbonylimino)-6′-(N-methyl-N-pivaloylamino) Azithromycin], for which the minimal inhibitory concentration (MIC) is 8 to 32 µg/mL (≈ 11 to 44 µM) in experiment [1]; no less than 32 µg/mL in experiment [2]; no less than 32 µg/mL in experiment [3]; no less than 32 µg/mL in experiment [4]; no less than 32 µg/mL in experiment [5].

As for `CC[C@H]1OC(=O)C(C)C(=O)[C@H](C)[C@@H](O[C@@H]2O[C@H](CN(C)C(=O)CN(C)C)CC(N(C)C)[C@H]2O)[C@](C)(OC)C[C@@H](C)CN[C@H](C)[C@H]2NC(=O)O[C@@]21C` (some centres unmarked) [Compound 171, 3-Descladinosyl-3-oxo-6-O-methyl-N9a-desmethyl-11,12-dideoxy-12,11-(oxycarbonylimino)-6′-N-methyl-2″-dimethylamino-acetamide Azithromycin], the minimal inhibitory concentration (MIC) in experiment [1] was no more than 4 µg/mL; in experiment [2] it was no less than 32 µg/mL; in experiment [3] it was no less than 32 µg/mL; in experiment [4] it was no less than 32 µg/mL; in experiment [5], no less than 32 µg/mL.

Consider `CC[C@H]1OC(=O)C(C)C(=O)[C@H](C)[C@@H](O[C@@H]2O[C@H](CN(C)C(=O)CN(C)C3CC3)CC(N(C)C)[C@H]2O)[C@](C)(OC)C[C@@H](C)CN[C@H](C)[C@H]2NC(=O)O[C@@]21C` (some centres unmarked) [Compound 172, 3-Descladinosyl-3-oxo-6-O-methyl-N9a-desmethyl-11,12-dideoxy-12,11-(oxycarbonylimino)-6′-(N-methyl-N-(2-cyclopropylamino)acetylamino) Azithromycin], for which the MIC in experiment [1], in experiment [2], in experiment [3], in experiment [4] and in experiment [5] was no less than 32 µg/mL throughout.

With `CC[C@H]1OC(=O)C(C)C(=O)[C@H](C)[C@@H](O[C@@H]2O[C@H](CN(C)C(=O)CNC)CC(N(C)C)[C@H]2O)[C@](C)(OC)C[C@@H](C)CN[C@H](C)[C@H]2NC(=O)O[C@@]21C` (some centres unmarked) [Compound 173, 3-Descladinosyl-3-oxo-6-O-methyl-N9a-desmethyl-11,12-dideoxy-12,11-(oxycarbonylimino)-6′-N-methyl-2″-methylamino-acetamide Azithromycin], the minimum inhibitory concentration (MIC) in experiment [1], in experiment [2], in experiment [3], in experiment [4] and in experiment [5] was no less than 32 µg/mL in each case.

Turning to `CC[C@H]1OC(=O)C(C)C(=O)[C@H](C)[C@@H](O[C@@H]2O[C@H](CN)CC(N(C)C)[C@H]2O)[C@](C)(OC)C[C@@H](C)CN[C@H](C)[C@H]2NC(=O)O[C@@]21C` (some centres unmarked) [Compound 174, 3-Descladinosyl-3-oxo-6-O-methyl-N9a-desmethyl-11,12-dideoxy-12,11-(oxycarbonylimino)-11-methyl-6′-amino Azithromycin], the minimum inhibitory concentration (MIC) in experiment [1], in experiment [2], in experiment [3], in experiment [4] and in experiment [5] was no less than 32 µg/mL throughout.

Consider `CC[C@H]1OC(=O)C(C)C(=O)[C@H](C)[C@@H](O[C@@H]2O[C@H]([C@H](C)N(C)C)CC(N(C)C)[C@H]2O)[C@](C)(OC)C[C@@H](C)CN[C@H](C)[C@H]2NC(=O)O[C@@]21C` (stereo partly drawn) [Compound 175, 3-Descladinosyl-3-oxo-6-O-methyl-N9a-desmethyl-11,12-dideoxy-12,11-(oxycarbonylimino)-6′-((S)-(dimethylamino)ethyl) Azithromycin], for which the MIC was no more than 4 µg/mL in experiment [1]; 8 to 32 µg/mL (≈ 11.9 to 47.7 µM) in experiment [2]; no less than 32 µg/mL in experiment [3]; no less than 32 µg/mL in experiment [4]; no less than 32 µg/mL in experiment [5].

In the case of `CC[C@H]1OC(=O)C(C)C(=O)[C@H](C)[C@@H](O[C@@H]2O[C@H]([C@@H](C)N(C)C)CC(N(C)C)[C@H]2O)[C@](C)(OC)C[C@@H](C)CN[C@H](C)[C@H]2NC(=O)O[C@@]21C` (stereo partly drawn) [Compound 176, 3-Descladinosyl-3-oxo-6-O-methyl-N9a-desmethyl-11,12-dideoxy-12,11-(oxycarbonylimino)-6′-((R)-(dimethylamino)ethyl) Azithromycin], the MIC in experiment [1], in experiment [2], in experiment [3], in experiment [4] and in experiment [5] was no less than 32 µg/mL in each case.

On to `CC[C@H]1OC(=O)C(C)C(=O)[C@H](C)[C@@H](O[C@@H]2O[C@H](C(C)N(CC3CC3)CC3CC3)CC(N(C)C)[C@H]2O)[C@](C)(OC)C[C@@H](C)CN[C@H](C)[C@H]2NC(=O)O[C@@]21C` (stereo partly drawn) [Compound 177, 3-Descladinosyl-3-oxo-6-O-methyl-N9a-desmethyl-11,12-dideoxy-12,11-(oxycarbonylimino)-6′-((R,S)-(dicyclopropylmethylamino)ethyl) Azithromycin], for which the MIC in experiment [1] was 8 to 32 µg/mL (≈ 10.7 to 42.6 µM); in experiment [2], no less than 32 µg/mL; in experiment [3] it was no less than 32 µg/mL; in experiment [4] it was no less than 32 µg/mL; in experiment [5], no less than 32 µg/mL.

Turning to `CC[C@H]1OC(=O)C(C)C(=O)[C@H](C)[C@@H](O[C@@H]2O[C@H](C(C)NCC3CC3)CC(N(C)C)[C@H]2O)[C@](C)(OC)C[C@@H](C)CN[C@H](C)[C@H]2NC(=O)O[C@@]21C` (stereo partly drawn) [Compound 178, 3-Descladinosyl-3-oxo-6-O-methyl-N9a-desmethyl-11,12-dideoxy-12,11-(oxycarbonylimino)-6′-((R,S)-(cyclopropylmethylamino)ethyl) Azithromycin], the MIC in experiment [1] is no more than 4 µg/mL; in experiment [2] it was 8 to 32 µg/mL (≈ 11.5 to 45.9 µM); in experiment [3], no less than 32 µg/mL; in experiment [4], no less than 32 µg/mL; in experiment [5], no less than 32 µg/mL.

As to `CC[C@H]1OC(=O)C(C)C(=O)[C@H](C)[C@@H](O[C@@H]2O[C@H]([C@H](C)N3CCCCC3)CC(N(C)C)[C@H]2O)[C@](C)(OC)C[C@@H](C)CN[C@H](C)[C@H]2NC(=O)O[C@@]21C` (stereo partly drawn) [Compound 179, 3-Descladinosyl-3-oxo-6-O-methyl-N9a-desmethyl-11,12-dideoxy-12,11-(oxycarbonylimino)-6′-((S)-1-(piperidin-1-yl)ethyl) Azithromycin], the MIC in experiment [1] is no more than 4 µg/mL; in experiment [2], 8 to 32 µg/mL (≈ 11.3 to 45 µM); in experiment [3], no less than 32 µg/mL; in experiment [4], no less than 32 µg/mL; in experiment [5], no less than 32 µg/mL.

With `CC[C@H]1OC(=O)C(C)C(=O)[C@H](C)[C@@H](O[C@@H]2O[C@H](C(C)N)CC(N(C)C)[C@H]2O)[C@](C)(OC)C[C@@H](C)CN[C@H](C)[C@H]2NC(=O)O[C@@]21C` (some centres unmarked) [Compound 181, 3-Desdadinosyl-3-oxo-6-O-methyl-N9a-desmethyl-11,12-dideoxy-12,11-(oxycarbonylimino)-6′-aminoethyl Azithromycin], the MIC in experiment [1] was 8 to 32 µg/mL (≈ 12.4 to 49.8 µM); in experiment [2], no less than 32 µg/mL; in experiment [3], no less than 32 µg/mL; in experiment [4] it was no less than 32 µg/mL; in experiment [5] it was no less than 32 µg/mL.
